{"source": "paper PMC7235863", "about": "“Benzamide Derivatives Targeting the Cell Division Protein FtsZ: Modifications of the Linker and the Benzodioxane Scaffold and Their Effects on Antimicrobial Activity” (Antibiotics, 2020)", "key": {"[1]": {"test_system": "MSSA ATCC 29213", "assay": "MIC/MBC determination in LB broth, MSSA", "assay_type": "cell-based, Staphylococcus aureus", "conditions": "for MBC/MIC / MBC / MIC: MSSA ATCC 29213; for MBC / MIC: Staphylococcus aureus; for MBC: read-out: MBC; for MIC: read-out: MIC", "experimental": "(§1) Normal human lung fibroblasts (MRC-5) were grown in Dulbecco’s modified Eagle’s medium (DMEM) supplemented with 10% calf serum, 100 U/mL penicillin and […] streptomycin in an incubator at 5% CO2 atmosphere and 37 °C. The Gram-positive Staphylococcus aureus (methicillin-sensitive, MSSA ATCC 29213, and methicillin-resistant, MRSA ATCC 43300) and the Gram-negative Escherichia coli (ESBL, extended-spectrum beta-lactamase-positive) bacterial cells were grown in Luria-Bertani broth (LB) at 37 °C under constant shaking at 300 rpm.\n(§2) The antibacterial activity was tested on both a methicillin-sensitive and a methicillin-resistant S. aureus strain, and an ESBL E. coli clinical isolate. All the compounds were dissolved at the final concentration of 20 mg/mL in dimethyl sulfoxide (DMSO) and serially diluted in LB. Fresh cell cultures were used at 10^5 cells/mL in a final volume of 2 mL. Each bacterial sample was grown with different compound concentrations that ranged from 100 to 0.1 μg/mL. […] To determine the MBC, the bacteria were then washed three times with LB, centrifuged at 900× g for 10 min at 4 °C, and the pellet resuspended in fresh LB. After overnight incubation at 37 °C, the absence of growth was confirmed by OD measurement. The presence of antibacterial activity, at any concentration tested, was established for values of absorbance < 0.1 OD600. All tests were performed in quadruplicate and for each series of experiments, both positive (no compounds) and negative (no bacteria) controls were included."}, "[2]": {"test_system": "MRSA ATCC 43300", "assay": "MIC/MBC determination in LB broth, MRSA", "assay_type": "cell-based, Staphylococcus aureus", "conditions": "for MBC / MIC: Staphylococcus aureus; for MBC: read-out: MBC; for MIC: read-out: MIC", "experimental": "as §1, §2"}, "[3]": {"test_system": "MDRSA 12.1", "assay": "Broth microdilution MIC, MDRSA 12.1", "assay_type": "cell-based, Staphylococcus aureus", "conditions": "Staphylococcus aureus, read-out: MIC", "experimental": "(§3) Antimicrobial activity of 1–8 was evaluated on both Gram-positive (Table 3) and Gram-negative (Table 4) species. As a continuation of our previous studies, considering the Gram-positive S. aureus, we chose a methicillin-sensitive S. aureus (MSSA, ATCC 29213), a methicillin-resistant S. aureus (MRSA, ATCC 43300) and two clinical isolates of S. aureus showing multi-drug resistance (MDRSA).\n(§4) Antibacterial activities of compounds were determined by the broth microdilution method against MDRSA 11.7, MDRSA 12.1 and E. coli N43 following the European Committee on Antimicrobial Susceptibility Testing (EUCAST) recommendations and Clinical and Laboratory Standards Institute (CLSI) guidelines. Strains MDRSA ST-11.7 and ST-12.1 were obtained through the interlaboratory control organized by the EU Reference Laboratory—Antimicrobial Resistance. Only data on their resistance to antibiotics are known, but other data are not available.\n(§5) Bacterial suspension of specific bacterial strain equivalent to 0.5 McFarland turbidity standard was diluted with cation-adjusted Mueller Hinton broth with TES (Thermo Fisher Scientific), to obtain a final inoculum of 10^5 CFU/mL. Compounds dissolved in DMSO and inoculum were mixed together and incubated for 20 h at 37 °C. After incubation, the minimal inhibitory concentration (MIC) values were determined by visual inspection as the lowest dilution of compounds showing no turbidity. Tetracycline was used as a positive control on every assay plate."}, "[4]": {"test_system": "MDRSA 11.7", "assay": "Broth microdilution MIC, MDRSA 11.7", "assay_type": "cell-based, Staphylococcus aureus", "conditions": "Staphylococcus aureus, read-out: MIC", "experimental": "as §3, §4, §5"}, "[5]": {"test_system": "E. coli ATCC 25922", "assay": "MIC on reference sensitive E. coli", "assay_type": "cell-based, Escherichia coli", "conditions": "Escherichia coli, ATCC25922", "text": "(§6) We thus tested 1–8 and III initially on the reference sensitive E. coli ATCC 25922 and on the extended-spectrum of beta-lactamase-positive (ESBL) E. coli, as Gram-negative bacteria. Moreover, in order to evaluate the susceptibility of this series of compounds to the efflux pump AcrAB, we employed also the above-mentioned E. coli N43, which is the knockout of the AcrAB cell membrane pump."}, "[6]": {"test_system": "ESBL E. coli", "assay": "MIC in LB broth, ESBL E. coli clinical isolate", "assay_type": "cell-based, Escherichia coli", "conditions": "Escherichia coli, read-out: MIC", "experimental": "as §6, §1, §2"}, "[7]": {"test_system": "E. coli N43", "assay": "Broth microdilution MIC, efflux-defective E. coli N43", "assay_type": "cell-based, Escherichia coli", "conditions": "Escherichia coli, N43", "experimental": "as §6, §4, §5"}, "[8]": {"test_system": "Methicillin Sensitive S. aureus", "conditions": "cited from earlier work; for MIC: Methicillin Sensitive S. aureus, ref 10 (Z2, Z3), 11 (TXY436), 12 (I, II); for MIC vs. MSSA: chromanes ref 22"}, "[9]": {"test_system": "E. coli AcrAB–", "conditions": "ref 10 (Z2, Z3), 11 (TXY436), 12 (I, II); cited from earlier work"}, "[10]": {"test_system": "S. aureus ATCC 43300", "assay": "Transmission electron microscopy of septum formation", "assay_type": "cell-based, Staphylococcus aureus", "conditions": "MRSA cultured overnight; 1 at 1 μg/mL, DFNB at 0.25 μg/mL", "text": "After having assessed the antimicrobial profile of this class of derivatives, we chose 1 to be further analyzed by transmission electron microscopy (TEM), in order to evaluate any morphological changes in septum formation, as done before as a simple FtsZ target validation assay. We cultured S. aureus ATCC 43300 alone or in the presence of 1 and 2,6-difluorononyloxybenzamide (DFNB) as a reference FtsZ inhibitor (positive control). […] These are the typical effects of the inhibition of FtsZ assembly and consequently of the block of bacterial cell division.\nS. aureus ATCC 43300 (10^9 cells/mL) were cultured in the presence of 1 and DFNB (positive control), at the same concentrations used for optical microscopy and, after 16 h incubation at 37 °C, the cells were harvested and processed for transmission electron microscopy, as already described. Untreated S. aureus was used as negative control. After centrifugation at 3100× g for 5 min at room temperature, pelleted bacteria were fixed in 2.5% glutaraldehyde (Polysciences, Warrington, PA) in 0.1 M Na cacodylate buffer, pH 7.4, for 1 h at 4 °C, rinsed twice and post-fixed in Na cacodylate-buffered 1% OsO4 for 1 h at 4 °C. The samples were dehydrated through a series of graded ethanol solutions and propylene oxide and embedded in Poly/Bed 812 resin mixture. […]"}, "[11]": {"test_system": "E. coli ATCC 25922", "set-up": "method as in PMID 31750973", "conditions": "in-house reference compounds ref 12; cited from earlier work"}, "[12]": {"test_system": "ESBL E. coli", "set-up": "method as in PMID 31750973", "conditions": "in-house reference compounds ref 12; cited from earlier work"}, "[13]": {"test_system": "E. coli N43", "set-up": "method as in PMID 31750973", "conditions": "E. coli N43 (AcrAB knockout); in-house reference compounds ref 12; cited from earlier work"}, "[14]": {"test_system": "Sa cells", "set-up": "method as in PMID 31750973", "conditions": "Sa cells incubated with the compounds ref 12; cited from earlier work"}}, "note": "Where two headings read alike, the source gives them in different places.", "data": [{"smiles": "NC(=O)c1c(F)ccc(OCCCC2COc3ccccc3O2)c1F", "note": "(stereo not shown) [Compound 8]", "values": [{"measurement": "MBC/MIC", "setting": "[1]", "value": 10}, {"measurement": "MBC", "setting": "[1]", "value": 100, "unit": "µg/mL"}, {"measurement": "MIC", "setting": "[1]", "value": 10, "unit": "µg/mL"}, {"measurement": "MBC/MIC", "setting": "[2]", "value": 10}, {"measurement": "MBC", "setting": "[2]", "value": 100, "unit": "µg/mL"}, {"measurement": "MIC", "setting": "[2]", "value": 10, "unit": "µg/mL"}, {"measurement": "MIC", "setting": "[3]", "value": 16, "unit": "µg/mL"}, {"measurement": "MIC", "setting": "[4]", "value": 32, "unit": "µg/mL"}, {"measurement": "MIC", "setting": "[5]", "value": "> 100", "unit": "µg/mL"}, {"measurement": "MIC", "setting": "[6]", "value": "> 100", "unit": "µg/mL"}, {"measurement": "MIC", "setting": "[7]", "value": "> 128", "unit": "µg/mL"}]}, {"smiles": "CCN(CC)CCNc1nc(/C=C/c2ccc(Cl)cc2)nc2cc3ccccc3cc12", "note": "[Compound Z3]", "values": [{"measurement": "MIC", "setting": "[8]", "value": 2.1, "unit": "µg/mL"}, {"measurement": "MIC", "setting": "[9]", "value": 4, "unit": "µg/mL"}]}, {"smiles": "CCCCCCCCCOc1ccc(F)c(C(N)=O)c1F", "note": "[DFNB, 2,6-difluorononyloxybenzamide, reference compound]", "values": [{"measurement": "Morphological changes in septum formation (TEM)", "setting": "[10]", "value": "strong alterations in the septum formation and bacterial desegregation"}]}, {"smiles": "NC(=O)c1c(F)ccc(OCC2COc3ccccc3O2)c1F", "note": "(stereo not shown) [III, reference compound]", "values": [{"measurement": "MBC/MIC", "setting": "[1]", "value": 16}, {"measurement": "MBC/MIC ratios", "setting": "[1]; S. aureus, as summarised in the text from Table 3", "value": 16}, {"measurement": "MBC", "setting": "[1]", "value": 80, "unit": "µg/mL"}, {"measurement": "MIC", "setting": "[1]", "value": 5, "unit": "µg/mL"}, {"measurement": "MBC/MIC", "setting": "[2]", "value": 16}, {"measurement": "MBC", "setting": "[2]", "value": 80, "unit": "µg/mL"}, {"measurement": "MIC", "setting": "[2]", "value": 5, "unit": "µg/mL"}, {"measurement": "MIC", "setting": "[3]", "value": 8, "unit": "µg/mL"}, {"measurement": "MIC", "setting": "[4]", "value": 16, "unit": "µg/mL"}, {"measurement": "MIC", "setting": "[5]", "value": "> 100", "unit": "µg/mL"}, {"measurement": "MIC", "setting": "[6]", "value": "> 100", "unit": "µg/mL"}, {"measurement": "MIC", "setting": "[7]", "value": "> 128", "unit": "µg/mL"}]}, {"smiles": "Cc1nc(-c2ccc3c(c2)OC(COc2ccc(F)c(C(N)=O)c2F)CO3)no1", "note": "(stereo not shown) [II]", "values": [{"measurement": "MIC", "setting": "[11]", "value": ">100", "unit": "µg/mL"}, {"measurement": "MIC", "setting": "[12]", "value": ">100", "unit": "µg/mL"}, {"measurement": "MIC", "setting": "[13]", "value": 16, "unit": "µg/mL"}, {"measurement": "MIC", "setting": "[8]", "value": 0.6, "unit": "µg/mL"}, {"measurement": "MIC", "setting": "[9]", "value": 16, "unit": "µg/mL"}, {"measurement": "Morphometric analysis by TEM", "setting": "[14]", "value": "significant elongation in cellular dimension, bacterial swelling and cell desegregation"}]}, {"smiles": "NC(=O)c1c(F)ccc(OCC2CCc3ccccc3O2)c1F", "note": "(stereo not shown) [IV]", "values": [{"measurement": "MIC vs. MSSA", "setting": "[8]", "value": 5, "unit": "µg/mL"}]}, {"smiles": "NC(=O)c1c(F)ccc(OCC2COc3ccccc3C2)c1F", "note": "(stereo not shown) [V]", "values": [{"measurement": "MIC vs. MSSA", "setting": "[8]", "value": 100, "unit": "µg/mL"}]}]}
